Measurements published in PMC10133251, “An intrinsic purine metabolite AICAR blocks lung tumour growth by targeting oncoprotein mucin 1” (British Journal of Cancer, 2023).
pEC50: −log10 of the molar value.

Key:
MUC1-CT = target: T1, MUC1-CT (Homo sapiens, UniProt P15941); experiment: cellular thermal shift assay, western blot; format: cell-based; conditions: intact H1975 cells, 1 mM AICAR for 15 min, heated 3 min at 37-55 °C; stabilisation shown as curve only, no Tm; intracellular phosphorylation to ZMP possible
T1 construct: endogenous C-terminal beta subunit (MUC1-CT) of the cleaved MUC1 precursor in intact H1975 cells; detected by western blot with anti-MUC1-CT
T1 sequence (P15941 1098-1255 limits assumed): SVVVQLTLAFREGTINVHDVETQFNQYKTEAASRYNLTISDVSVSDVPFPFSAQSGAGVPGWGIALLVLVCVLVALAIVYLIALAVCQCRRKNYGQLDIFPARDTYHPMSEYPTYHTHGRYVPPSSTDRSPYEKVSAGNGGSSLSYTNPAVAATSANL

A549 = experiment: cells; design: species or system panel of lung tumour and stromal cell lines; CellTiter-Glo luminescent cell viability, 2D monolayer, 3000 cells per well in 96-well plate, vehicle-normalised; conditions: Homo sapiens, A549; viability, 72 h
Procedure: (§1) For 2D monolayer cell cultures, 3000 cells were plated into each well of a white 96-well plate in three replicates. After attachment, the cells were treated with AICAR, VX-509, osimertinib, and ABT-702 alone or in combinations for 72 h. The cell viability was measured at the treatment endpoint using the CellTiter-Glo® luminescent cell viability assay kit (Promega, Cat #G7570) according to the manufacturer’s instructions. The luminescent signal was recorded as relative light units (RLU). For 3D organoid cultures, the cell viability was measured using CellTiter-Glo 3D® Cell Viability Assay (Promega, Cat #G9681) according to the manufacturer’s protocol. The relative cell viability treated with the vehicle was normalised as 1. To explore the effects of AICAR treatment on lung cancer cell lines, we performed a cell viability assay using a panel of lung cancer cell lines based on the status of EGFR mutations (Table S1). […] To understand whether AICAR’s effects are dependent upon EGFR mutations, we tested drug response in another panel of lung cancer cells with wild-type EGFR, including H358, H23, H441, A549, and H69 (Fig. 1b). The average EC50 of tested EGFR wild-type cell lines (1.31 ± 0.18 mM) was higher than that of EGFR-mutant cell lines upon AICAR treatment (p < 0.05). To examine if there was any toxicity in stromal cells, we measured AICAR treatment response in a panel of primary lung stromal cell lines, including CCD-13Lu (fibroblasts), HULEC-5A (endothelial cells), and NR8383 (macrophages). […] 3000 cells (H3255, PC9-ER, HCC827, H1650, PC9, and H1975) were plated in a 96-well plate and treated with increasing doses of AICAR (0–10 mM). The cell viability was measured three days after treatment. Values were normalised to a vehicle-treated control group. N = 3 replicates. b Cell viability assay of AICAR in EGFR wild-type lung adenocarcinoma and small cell lung cancer cell lines. 3000 cells (A549, H23, H69, H358, and H441) were plated in a 96-well plate and treated with increasing doses of AICAR (0–10 mM). The cell viability was measured three days after treatment. Values were normalised to a vehicle-treated control group. N = 3 replicates. c Cell viability assay of AICAR in multiple types of primary lung stromal cells. 3000 cells (macrophages NR8383, endothelial cells HULEC-5A, and fibroblasts CCD-13Lu) were plated in a 96-well plate and treated with increasing doses of AICAR (0–10 mM). The cell viability was measured three days after treatment. Values were normalised to a vehicle-treated control group. N = 3 replicates. d Quantification of EC50 in EGFR mutant, wild-type, and non-malignant stromal lung cells. N = 3 replicates. e Flow cytometry analysis for time-dependent apoptosis in EGFR-mutant H1975 cells treated with AICAR. H1975 cells were plated in a 24-well plate and treated with AICAR (1 mM) for 0, 4, 7, and 16 h. After treatment, the apoptotic cells were quantified by flow cytometry analysis of cells stained with Annexin-V-APC and 7AAD. N = 4 replicates. f–h Flow cytometry analysis for apoptosis in multiple cell lines treated with AICAR. EGFR-mutant PC9 (f) and EGFR wild-type A549 (g) and H23 (h) cells were plated in a 24-well plate and treated with AICAR (1 mM) and vehicle control for 7 h. After treatment, the apoptotic cells were quantified by flow cytometry analysis of cells stained with Annexin-V-APC and 7AAD. N = 4 replicates. i, j Western blotting and relative quantification for expression levels of γ-H2AX (S139), H2AX, p-p53 (S33), p53, and […]

H1650 = experiment: cells; design: species or system panel of lung tumour and stromal cell lines; CellTiter-Glo luminescent cell viability, 2D monolayer, 3000 cells per well in 96-well plate, vehicle-normalised; conditions: Homo sapiens, NCI-H1650; viability, 72 h
Procedure: as §1

H1975 = experiment: cells; design: species or system panel of lung tumour and stromal cell lines; CellTiter-Glo luminescent cell viability, 2D monolayer, 3000 cells per well in 96-well plate, vehicle-normalised; conditions: Homo sapiens, NCI-H1975; viability, 72 h
Procedure: as §1

H23 = experiment: cells; design: species or system panel of lung tumour and stromal cell lines; CellTiter-Glo luminescent cell viability, 2D monolayer, 3000 cells per well in 96-well plate, vehicle-normalised; conditions: Homo sapiens, NCI-H23; viability, 72 h
Procedure: as §1

H3255 = experiment: cells; design: species or system panel of lung tumour and stromal cell lines; CellTiter-Glo luminescent cell viability, 2D monolayer, 3000 cells per well in 96-well plate, vehicle-normalised; conditions: Homo sapiens, NCI-H3255; viability, 72 h
Procedure: as §1

H358 = experiment: cells; design: species or system panel of lung tumour and stromal cell lines; CellTiter-Glo luminescent cell viability, 2D monolayer, 3000 cells per well in 96-well plate, vehicle-normalised; conditions: Homo sapiens, NCI-H358; viability, 72 h
Procedure: as §1

H441 = experiment: cells; design: species or system panel of lung tumour and stromal cell lines; CellTiter-Glo luminescent cell viability, 2D monolayer, 3000 cells per well in 96-well plate, vehicle-normalised; conditions: Homo sapiens, NCI-H441; viability, 72 h
Procedure: as §1

H69 = experiment: cells; design: species or system panel of lung tumour and stromal cell lines; CellTiter-Glo luminescent cell viability, 2D monolayer, 3000 cells per well in 96-well plate, vehicle-normalised; conditions: Homo sapiens, NCI-H69; viability, 72 h
Procedure: as §1

HCC827 = experiment: cells; design: species or system panel of lung tumour and stromal cell lines; CellTiter-Glo luminescent cell viability, 2D monolayer, 3000 cells per well in 96-well plate, vehicle-normalised; conditions: Homo sapiens, HCC827; viability, 72 h
Procedure: as §1

PC9-ER = experiment: cells; design: species or system panel of lung tumour and stromal cell lines; CellTiter-Glo luminescent cell viability, 2D monolayer, 3000 cells per well in 96-well plate, vehicle-normalised; conditions: Homo sapiens, PC-9/ER; viability, 72 h
Procedure: as §1

PC9 = experiment: cells; design: species or system panel of lung tumour and stromal cell lines; CellTiter-Glo luminescent cell viability, 2D monolayer, 3000 cells per well in 96-well plate, vehicle-normalised; conditions: Homo sapiens, PC-9; viability, 72 h
Procedure: as §1

in vitro = experiment: in vitro; design: species or system panel of lung tumour and stromal cell lines; CellTiter-Glo luminescent cell viability, 2D monolayer, 3000 cells per well in 96-well plate, vehicle-normalised; conditions: panel of lung tumour and stromal cell lines, EC50 (mM), viability, given as EC50
Procedure: (§2) For 2D monolayer cell cultures, 3000 cells were plated into each well of a white 96-well plate in three replicates. After attachment, the cells were treated with AICAR, VX-509, osimertinib, and ABT-702 alone or in combinations for 72 h. The cell viability was measured at the treatment endpoint using the CellTiter-Glo® luminescent cell viability assay kit (Promega, Cat #G7570) according to the manufacturer’s instructions. The luminescent signal was recorded as relative light units (RLU). For 3D organoid cultures, the cell viability was measured using CellTiter-Glo 3D® Cell Viability Assay (Promega, Cat #G9681) according to the manufacturer’s protocol. The relative cell viability treated with the vehicle was normalised as 1. To explore the effects of AICAR treatment on lung cancer cell lines, we performed a cell viability assay using a panel of lung cancer cell lines based on the status of EGFR mutations (Table S1). […] To understand whether AICAR’s effects are dependent upon EGFR mutations, we tested drug response in another panel of lung cancer cells with wild-type EGFR, including H358, H23, H441, A549, and H69 (Fig. 1b). […] To examine if there was any toxicity in stromal cells, we measured AICAR treatment response in a panel of primary lung stromal cell lines, including CCD-13Lu (fibroblasts), HULEC-5A (endothelial cells), and NR8383 (macrophages). […] The cell viability was measured three days after treatment. […] The cell viability was measured three days after treatment. […] The cell viability was measured three days after treatment. […] N = 3 replicates. d Quantification of EC50 in EGFR mutant, wild-type, and non-malignant stromal lung cells. […] After treatment, the apoptotic cells were quantified by flow cytometry analysis of cells stained with Annexin-V-APC and 7AAD. […] After treatment, the apoptotic cells were quantified by flow cytometry analysis of cells stained with Annexin-V-APC and 7AAD. N = 4 replicates. i, j Western blotting and relative quantification for expression levels of γ-H2AX (S139), H2AX, p-p53 (S33), p53, and […]

HULEC-5A = experiment: in vitro; design: species or system panel of lung tumour and stromal cell lines; CellTiter-Glo luminescent cell viability, 2D monolayer, 3000 cells per well in 96-well plate, vehicle-normalised; conditions: viability, 72 h; given as EC50; inhibitor
Procedure: as §2

NR8383 = experiment: in vitro; design: species or system panel of lung tumour and stromal cell lines; CellTiter-Glo luminescent cell viability, 2D monolayer, 3000 cells per well in 96-well plate, vehicle-normalised; conditions: viability, 72 h; given as EC50; inhibitor
Procedure: as §2

SMILES: NC(=O)c1ncn([C@@H]2O[C@H](CO)[C@@H](O)[C@H]2O)c1N [AICAR]
- thermal stability (MUC1-CT): AICAR incubation in H1975 cells significantly increased protein stability in MUC1-CT than vehicle-treated groups
- pEC50 (A549): 2.80
- pEC50 (H1650): 3.38
- pEC50 (H1975): 3.53
- pEC50 (H23): 2.79
- pEC50 (H3255): 3.49
- pEC50 (H358): 2.89
- pEC50 (H441): 3.19
- pEC50 (H69): 2.84
- pEC50 (HCC827): 3.06
- pEC50 (PC9-ER): 3.39
- pEC50 (PC9): 3.52
- CC50 at 72 h (in vitro): 1.03 mM
- CC50 (HULEC-5A): 1450 µM
- CC50 (NR8383): 1110 µM
